Legend:
Type in all cases: cell-based
[1] = tested on: LoVo (human colon adenocarcinoma); experiment: Cytotoxicity test on sensitive tumour cell lines (sulforodamine B test); conditions: Homo sapiens, LoVo; 24 h incubation, survival after 48 h; ± S.D.; read-out: antiproliferative activity IC50, Lovo
Experimental: (§1) This test was used to evaluate the survival of the human cell lines MCF-7 (human mammary carcinoma), LoVo (human colon adenocarcinoma), and MES-SA (human uterine sarcoma). The tumour cells were incubated with the compound, at scalar concentrations, (500 μM÷0.97 μM) for 24 hours; the compound was then removed and cell survival was evaluated after 48 hours using the sulforodamine B test (J. Natl. Cancer Inst. 82, 1107–1112). The antiproliferative activity of the compounds was evaluated in terms of the IC50 (concentration of the molecule that inhibits 50% of cell survival) processed with a curve-fitting program (Am. J. Physiol. 1978., 235, E97–E102) and expressed as μM±S.D.

[2] = tested on: MCF-7 (human mammary carcinoma); experiment: as above; conditions: Homo sapiens, MCF7; 24 h incubation, survival after 48 h; ± S.D.; read-out: antiproliferative activity IC50, MCF-7
Experimental: as §1

[3] = tested on: MES-SA (human uterine sarcoma); experiment: as above; conditions: Homo sapiens, MES-SA; 24 h incubation, survival after 48 h; ± S.D.; read-out: antiproliferative activity IC50, Mes-Sa
Experimental: as §1

[4] = tested on: LoVo-Dx (human colon adenocarcinoma); experiment: Cytotoxicity test on resistant tumour cell lines, tested compound alone; conditions: Homo sapiens, LoVo/DX; 24 h incubation, survival after 48 h; ± SD
Experimental: (§2) This test was used to evaluate the survival of human cell lines resistant to doxorubicin (about 100 times) and cross-resistant to daunorubicin, actinomycin D, mitoxantrone, vincristine, vinblastin, taxol, colchicine, and etoposide.
(§3) The following cell lines were used: MCF-7-Dx (human mammary carcinoma), LoVo-Dx (human colon adenocarcinoma), MES-SA Dx (human uterine sarcoma).
(§4) Before using the association doxorubicin-tested compound, the cytotoxicity of the cells was evaluated with the tested compound (alone) as follows: the cells were incubated with the compound, at scalar concentrations (500 μM÷0.97 μM), for 24 hours; the compound was then removed and cell survival was evaluated after 48 hours with the above-mentioned sulforodamine B test. The antiproliferative activity of the compounds was evaluated in terms of IC50 (concentration of the compound that inhibits 50% of cell survival) processed with the above-mentioned curve-fitting program.

[5] = tested on: MCF-7-Dx (human mammary carcinoma); experiment: as above; conditions: Homo sapiens, MCF7/DX, 24 h incubation, survival after 48 h; ± SD
Experimental: as §2, §3, §4

[6] = tested on: MES-SA Dx (human uterine sarcoma); experiment: as above; conditions: Homo sapiens, MES-SA Dx; 24 h incubation, survival after 48 h; ± SD
Experimental: as §2, §3, §4

[7] = tested on: NB4 cells (acute promyelocytic leukaemia); experiment: Cell differentiation by reduction of nitroblue tetrazolium (NBT), with suboptimal ATRA; conditions: combined with suboptimal doses of ATRA, NBT
Experimental: The first line used was the NB4 cell line, bearing the t(15;17) chromosomal translocation which generates the fusion protein PML/RARα. This line is very sensitive to the differentiative action of pharmacological doses of ATRA (10^−7–10^−6 M).
(§5) The HL60 and NB4 cells were seeded at a density of 150,000 cells/ml in RPMI 1640 medium containing 10% foetal calf serum, and were treated with the tested compounds in the presence and absence of suboptimal doses of ATRA (5–10 nM for NB4 and 0.5 μM for HL60, respectively) in the dark, and returned to the incubator for 3 days without ever replacing the culture medium.
(§6) To analyse the differentiative effect of the tested compounds vs ATRA, on the third day of treatment 500,000 viable cells were harvested from each sample, centrifuged for 10 minutes at 1.000 rpm and resuspended in 1 ml of RPMI 1640 medium containing 10% foetal calf serum, 1 mg/ml of nitroblue tetrazolium (NBT) and 100 ng of PMA (phorbol 12-myristate 13-acetate).
(§7) The cells thus resuspended were incubated in the dark at 37° C. for 60 minutes.
(§8) At the end of the incubation, the cell suspension was centrifuged for 10 minutes at 10,000 rpm; the pellet obtained was then resuspended in 1 ml of PBS containing 10% Triton X-100 and sonicated to lysis.
(§9) Spectrophotometric readings of the samples were then taken at a wavelength of 540 nm: samples containing differentiated cells shifted towards a violet colour, whereas control samples and/or samples with non-differentiated cells were colourless or, at any rate, much less intensely coloured.
(§10) The AC50 (Activating Concentration) is the concentration at which the tested compound induces 50% of cell differentiation.
(§11) Fold Induction is the increase in the differentiation value of the cell sample treated with the tested compound +ATRA vs the value of the cell sample treated with ATRA alone. This value provides an indication of the ability (potency) of the tested compound to enhance ATRA induced cell differentiation.

[8] = tested on: HL60 cells (acute promyelocytic leukaemia); experiment: as above; conditions: combined with suboptimal doses of ATRA
Experimental: (§12) The second line used was the HL60 cell line which responds to ATRA (but is less sensitive than the NB4 cell line).
as §5, §6, §7, §8, §9, §10, §11

[9] = tested on: HL60 cells (acute promyelocytic leukaemia); experiment: Flow cytofluorimetric analysis of cell cycle; conditions: for G0/G1 / G2/M / S: day 3
Experimental: as §12, §5
To assess the effect of the tested compounds on the various phases of the cell cycle, on the third day of treatment 500,000 cells were harvested, centrifuged at 1,000 rpm for 10 minutes, washed twice in PBS w/o (PBS without calcium and magnesium) and fixed in a solution of 50% PBS w/o+50% methanol/acetone (1:4 v/v) for at least 1 hour; the cells were then centrifuged as described, washed in PBS w/o and centrifuged again.
200 μl of propidium iodide 100 μg/ml and 200 μl of RNase 150 kU/mg were then added to the cell pellet.
After a 30-min incubation in the dark at room temperature, the samples were analysed by flow cytofluirometry.

Question: With `OCCCCC(c1c[nH]c2cc3c(cc12)OCO3)c1c[nH]c2cc3c(cc12)OCO3` [ST 1422, 5-hydroxy-1,1-di-(5,6-methylenedioxy-indol-3-yl)-pentane] as the compound, how does the IC50 [1] read?
Answer: 23 ± 4.4 µM

Question: And the IC50 [2]?
Answer: 43.1 ± 1.2 µM

Question: What about the IC50 [3] of the same compound?
Answer: 79.3 ± 7.8 µM

Question: What about the IC50 [4] of the same compound?
Answer: 22.3 ± 2.9 µM

Question: And the IC50 [5]?
Answer: 40.1 ± 1.2 µM

Question: And the IC50 [6]?
Answer: 73.3 ± 2.7 µM

Question: And the AC50 ([7]; Homo sapiens, NB-4, 72 h, 3 days, read-out: AC50 (concentration at which the tested compound induces 50% of cell differentiation))?
Answer: 9.8 ± 0.1 µM

Question: What about the “fold induction (differentiation, compound + ATRA vs ATRA alone)” value [7] of the same compound?
Answer: 1.85

Question: And the AC50 ([8]; Homo sapiens, HL-60, 72 h, 3 days, read-out: AC50 (concentration at which the tested compound induces 50% of cell differentiation))?
Answer: 13.6 ± 2.6 µM

Question: And the “fold induction (differentiation, compound + ATRA vs ATRA alone)” value [8]?
Answer: 2.2

Question: And the G0/G1 ([9]; compound 1 μM + ATRA 0.5 μM)?
Answer: 66.8

Question: And the G2/M ([9]; compound 1 μM + ATRA 0.5 μM)?
Answer: 11.0

Question: And the S ([9]; compound 1 μM + ATRA 0.5 μM)?
Answer: 22.2

Question: And the G0/G1 ([9]; compound 5 μM + ATRA 0.5 μM)?
Answer: 65.1

Question: What about the G2/M ([9]; compound 5 μM + ATRA 0.5 μM) of the same compound?
Answer: 11.4

Question: And the S ([9]; compound 5 μM + ATRA 0.5 μM)?
Answer: 23.5

Question: What about the G0/G1 ([9]; compound 10 μM + ATRA 0.5 μM) of the same compound?
Answer: 62.5

Question: And the G2/M ([9]; compound 10 μM + ATRA 0.5 μM)?
Answer: 12.5

Question: What about the S ([9]; compound 10 μM + ATRA 0.5 μM) of the same compound?
Answer: 25.0

Question: What about the G0/G1 ([9]; compound 50 μM + ATRA 0.5 μM) of the same compound?
Answer: 75.7

Question: And the G2/M ([9]; compound 50 μM + ATRA 0.5 μM)?
Answer: 13.8

Question: What about the S ([9]; compound 50 μM + ATRA 0.5 μM) of the same compound?
Answer: 10.5

Question: And the “effect of the compound alone on induction of apoptosis (in words)” value ([9]; compound alone)?
Answer: showed no effect on the induction of apoptosis

Question: What about the G0/G1 ([9]; compound alone 1 μM) of the same compound?
Answer: 56.2

Question: What about the G2/M ([9]; compound alone 1 μM) of the same compound?
Answer: 10.0

Question: What about the S ([9]; compound alone 1 μM) of the same compound?
Answer: 33.8

Question: And the G0/G1 ([9]; compound alone 5 μM)?
Answer: 57.6

Question: What about the G2/M ([9]; compound alone 5 μM) of the same compound?
Answer: 10.4

Question: And the S ([9]; compound alone 5 μM)?
Answer: 32.0

Question: What about the G0/G1 ([9]; compound alone 10 μM) of the same compound?
Answer: 57.8

Question: And the G2/M ([9]; compound alone 10 μM)?
Answer: 10.5

Question: What about the S ([9]; compound alone 10 μM) of the same compound?
Answer: 31.7

Question: What about the G0/G1 ([9]; compound alone 50 μM) of the same compound?
Answer: 65.8

Question: What about the G2/M ([9]; compound alone 50 μM) of the same compound?
Answer: 16.4

Question: What about the S ([9]; compound alone 50 μM) of the same compound?
Answer: 17.8

Reference: patent US7084166B2, “Bis-heterocyclic compounds with antitumour and chemosensitising activity” (Sigma-Tau Industrie Farmaceutichee Riunite S.p.A., priority 2000, dated 2006)
